{
  "source": "patent US5254541A",
  "about": "“(Quinolin-2-ylmethoxy)indole/cyclodextrin complex” (Merck Frosst Canada, Inc., priority 1991, dated 1993)",
  "key": {"[1]": {"assay": "aqueous solubility", "format": "physicochemical", "conditions": "water, crystalline sodium salt"}, "[2]": {"format": "physicochemical", "method": "Phase solubility experiments were conducted by adding excess amounts (20 mg/mL) of L-686,708, sodium salt, to aqueous solutions (pH=9) containing various amounts of cyclodextrin and mixing on a rotating mixer. After equilibration at room temperature for at least 48 hrs, aliquots of the mixture were centrifuged to separate the undissolved sodium salt. The supernatant was diluted and dissolved L-686,708 concentration measured by HPLC. […] This stability constant is a tentative measure of complex formation."}, "[3]": {"assay": "oral bioavailability, general statement", "conditions": "in vivo"}, "[4]": {"assay": "solid state characteristics of the crystalline sodium salt", "format": "physicochemical", "conditions": "non-hygroscopicity, physical stability, etc."}},
  "note": "Structures can show the parent of a compound that is named as a salt.",
  "data": [
    {"smiles": "CC(C)(C)Sc1c(CC(C)(C)C(=O)O)n(Cc2ccc(Cl)cc2)c2ccc(OCc3ccc4ccccc4n3)cc12", "note": "[L-686,708 sodium salt, Crystalline 3-[N-(p-chlorobenzyl)-3-(t-butylthio)-5-(quinolin-2-ylmethoxy)indol-2-yl]-2.2-dimethylpropanoic acid, sodium salt]", "values": [
      {"measurement": "solubility", "setting": "[1]", "result": "5 to 30", "unit": "µg/mL"},
      {"measurement": "type of solubility curve (Higuchi)", "setting": "[2]", "result": "An -type"},
      {"measurement": "oral bioavailability (in words)", "setting": "[3]", "result": "low oral bioavailability"},
      {"measurement": "solid state characteristics (in words)", "setting": "[4]", "result": "good solid state characteristics, such as non-hygroscopicity, physical stability"}
    ]}
  ]
}
